Data: PubChem BioAssay AID489016 (The Scripps Research Institute Molecular Screening Center, 2010)

System: P. falciparum 3D7 in RBCs, 3H-hypoxanthine incorporation, 48 h
Experiment: antimalarial potency in infected red cells – cell-based, radiolabel, RBCs, powder sample, late stage, M17LAP inhibitor project, dose response (AID 489016)

CCCCOc1ccc(CC(=O)NO)cc1
IC50: 1.7 µM
